Data published in US12018307B2, “Process for producing a glucuronide and genetically modified microorganisms useful in this process” (UTAH STATE UNIVERSITY, priority 2021, dated 2024).
In brackets after ≈: the same amount, converted by molar mass. Read-outs that look alike come from different tables or passages of the source. Each block holds one compound with its values, some of them ahead of it.

Columns and labels:
[1] = Determination of the water-solubility; assay type: physicochemical
Method: The purified product was tested for their water solubility as previously described (Wang et al. 2014). Purified 2′-hydroxyflavone glycoside was used to establish standard curves for quantifying water solubility. Briefly, the purified compound and the substrate were each mixed with 300 μL of distilled water in an Eppendorf tube at 25° C. An ultrasonic cleaner was used to facilitate the dissolution. After 30 min of sonication and centrifugation at 13,000×g for 10 min, supernatant of each sample was analyzed by HPLC to determine the compound concentrations in the solution. All samples were performed in triplicate and water solubility of each sample are expressed as the mean±standard deviation (SD).

[2] = system: human peripheral blood mononuclear cells; conditions: cited from earlier work

- solubility at 30 min ([1]; thermodynamic from solid, distilled water, 25° C., 30 min sonication, HPLC, n=3, mean±SD): 2.5 ± 0.7 µg/mL (≈ 10.5 µM)
SMILES: O=c1cc(-c2ccccc2O)oc2ccccc12 [2′-hydroxyflavone, reference compound]

- water solubility ([1]; distilled water, 25° C., 30 min sonication, HPLC, n=3, mean±SD): 34.8 ± 0.9 mg/L (≈ 84 µM)
- water solubility relative to the substrate 2′-hydroxyflavone ([1]; ratio glucuronide / substrate): around 14 times
SMILES: O=C(O)[C@H]1O[C@@H](Oc2ccccc2-c2cc(=O)c3ccccc3o2)[C@H](O)[C@@H](O)[C@@H]1O [hydroxyflavone-2′-O-β-D-glucuronide]

SMILES: Oc1ccc(C=Cc2cc(O)cc(O)c2)cc1 [resveratrol, reference compound]
- cytotoxicity to human peripheral blood mononuclear cells ([2]; at 30 μM): has cytotoxicity

SMILES: O=C(O)[C@H]1O[C@@H](Oc2ccc(/C=C/c3cc(O)cc(O)c3)cc2)[C@H](O)[C@@H](O)[C@@H]1O [resveratrol-4′-O-β-D-glucuronide, Resveratrol-4′-O-β-D-glucuronide]
- cytotoxicity to human peripheral blood mononuclear cells ([2]; at 300 μM): did not show any cytotoxicity
